Laboratory results from US6737383B1, “Herbicidal oxadiazolidines” (priority 1999, dated 2004).

Key:
[1] = test system: bedstraw; experiment: Test B pre/postemergence bedstraw; assay type: in vivo, Galium aparine; conditions: for Bedstraw plant response rating: Postemergence; for Plant response rating, Bedstraw: Preemergence
In short: (§1)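 Test chemicals in a non-phytotoxic solvent mixture with surfactant were sprayed preemergence onto planted seeds and postemergence onto plants 2 to 18 cm tall (1- to 4-leaf stage). After twelve to sixteen days in a greenhouse, injury was visually rated against untreated controls from 0 (no effect) to 10 (complete control).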

[2] = test system: purple nutsedge; experiment: Test B pre/postemergence purple nutsedge; assay type: in vivo, Cyperus rotundus
In short: as §1

[3] = test system: morningglory; experiment: Test B pre/postemergence morningglory; assay type: in vivo, Ipomoea hederacea
In short: as §1

[4] = test system: surinam grass; experiment: Test B pre/postemergence surinam grass; assay type: in vivo, Brachiaria decumbens
In short: as §1

[5] = test system: blackgrass; experiment: Test B pre/postemergence blackgrass; assay type: in vivo, Alopecurus myosuroides
In short: as §1

[6] = test system: soybean; experiment: Test B pre/postemergence soybean; assay type: in vivo, Glycine max
In short: as §1

[7] = test system: cocklebur; experiment: Test B pre/postemergence cocklebur; assay type: in vivo, Xanthium strumarium
In short: as §1

[8] = test system: crabgrass; experiment: Test B pre/postemergence crabgrass; assay type: in vivo, Digitaria sanguinalis
In short: as §1

[9] = test system: corn; experiment: Test B pre/postemergence corn; assay type: in vivo, Zea mays
In short: as §1

[10] = test system: duck salad; experiment: Test B flood test duck salad; assay type: in vivo, Heteranthera limosa
In short: (§2)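 Plants were grown to the 2-leaf stage before treatment with test chemical, then held in a greenhouse for twelve to sixteen days. Injury was visually rated against untreated controls on a 0–10 scale, where 0 is no effect and 10 is complete control.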

[11] = test system: rice; experiment: Test B flood test rice; assay type: in vivo, Oryza sativa
In short: as §2

[12] = test system: giant foxtail; experiment: Test B pre/postemergence giant foxtail; assay type: in vivo, Setaria faberii
In short: as §1

[13] = test system: smallflower flatsedge; experiment: Test B flood test smallflower flatsedge; assay type: in vivo, Cyperus difformis
In short: as §2

[14] = test system: wild oat; experiment: Test B pre/postemergence wild oat; assay type: in vivo, Avena fatua; conditions: for Plant response rating, Wild oats: Rate 250 g/ha
In short: as §1

[15] = test system: pigweed; experiment: Test B pre/postemergence pigweed; assay type: in vivo, Amaranthus retroflexus
In short: as §1

[16] = test system: sugar beet; experiment: Test B pre/postemergence sugar beet; assay type: in vivo, Beta vulgaris; conditions: for Plant response rating, Sugarbeets: Rate 250 g/ha
In short: as §1

[17] = Postemergence, Rate 62 g/ha, scale 0 to 10, 0 is no effect, 10 is complete control
[18] = Postemergence, Rate 125 g/ha, scale of 0 to 10 where 0 is no effect and 10 is complete control
[19] = Postemergence, Rate 250 g/ha, scale 0 to 10, 0 no effect, 10 complete control
[20] = Preemergence, Rate 62 g/ha, scale 0 to 10 (0 no effect, 10 complete control)
[21] = Preemergence, Rate 125 g/ha, scale 0 to 10 (0 no effect, 10 complete control)
[22] = Preemergence, Rate 250 g/ha, scale of 0 to 10 where 0 is no effect and 10 is complete control
[23] = Preemergence, Rate 500 g/ha, scale 0 (no effect) to 10 (complete control)
[24] = Rate 500 g/ha, Postemergence, scale 0 to 10, 0 no effect, 10 complete control
[25] = Postemergence (flood test species), Rate 125 g/ha, scale of 0 to 10 where 0 is no effect and 10 is complete control
[26] = Rate 500 g/ha, listed under Postemergence (flood test species), scale 0 to 10, 0 no effect, 10 complete control
[27] = Rate 250 g/ha, Postemergence (flood test), scale 0 to 10, 0 is no effect, 10 is complete control
[28] = Preemergence, Rate 125 g/ha, 0 is no effect, 10 is complete control
[29] = Preemergence, scale of 0 to 10 where 0 is no effect and 10 is complete control
[30] = Postemergence, scale 0 to 10, 0 is no effect, 10 is complete control

CC(C)N(C(=O)n1oc(=O)n(-c2cnn(C)c2Cl)c1=O)c1ccc(F)cc1 [Compound 97]
10: Redroot pigweed plant response rating [15, 23]
9: Sugarbeets plant response rating [16, 23]
2: Plant response rating, B. signalgrass [4, 21] | Soybean plant response rating [6, 23] | Soybean plant response rating [6, 24] | Crabgrass plant response rating [8, 18] | Ducksalad plant response rating [10, 26] | Ducksalad plant response rating ([10]; flood test, listed under Postemergence, Rate 250 g/ha, scale 0 to 10, 0 no effect, 10 complete control) | S. Flatsedge plant response rating [13, 26] | Wild oats plant response rating (0 to 10 scale) [14, 28] | Plant response rating, Wild oats [14, 29]
4: B. signalgrass plant response rating [4, 23] | Crabgrass plant response rating [8, 19] | Crabgrass plant response rating [8, 23] | Plant response rating, Giant foxtail [12, 22] | Giant foxtail plant response rating [12, 24] | Plant response rating, Redroot pigweed [15, 22]
1: Bedstraw plant response rating ([1]; Rate 250 g/ha, scale 0 to 10, 0 no effect, 10 complete control) | Morningglory plant response rating [3, 17] | Morningglory plant response rating [3, 18] | Plant response rating, Blackgrass [5, 21] | Plant response rating, Blackgrass [5, 22] | Plant response rating, Soybean ([6]; Rate 250 g/ha, Postemergence, scale 0 to 10, 0 is no effect, 10 is complete control) | Cocklebur plant response rating [7, 19] | Cocklebur plant response rating [7, 24] | Plant response rating, Crabgrass [8, 22]
5: Blackgrass plant response rating [5, 24] | Wild oats plant response rating [14, 23] | Redroot pigweed plant response rating [15, 24] | Plant response rating, Sugarbeets [16, 29]
3: Bedstraw plant response rating ([1]; Rate 500 g/ha, scale 0 to 10, 0 no effect, 10 complete control) | Morningglory plant response rating [3, 19] | Morningglory plant response rating [3, 24] | Plant response rating, B. signalgrass [4, 22] | Blackgrass plant response rating [5, 19] | Blackgrass plant response rating [5, 23] | Rice plant response rating [11, 26] | Giant foxtail plant response rating [12, 19] | Plant response rating, Giant foxtail [12, 21] | Sugarbeets plant response rating (0 to 10 scale) [16, 28]
8: Giant foxtail plant response rating [12, 23]
0: Bedstraw plant response rating ([1]; Rate 62 g/ha, scale 0 to 10, 0 is no effect, 10 is complete control) | Plant response rating, Bedstraw ([1]; Rate 125 g/ha, scale 0 to 10 (0 no effect, 10 complete control)) | Plant response rating, Bedstraw ([1]; Rate 250 g/ha, scale of 0 to 10 where 0 is no effect and 10 is complete control) | Bedstraw plant response rating ([1]; Rate 125 g/ha, scale 0 to 10, 0 no effect, 10 complete control) | Nutsedge plant response rating [2, 17] | Nutsedge plant response rating [2, 18] | Nutsedge plant response rating [2, 19] | Nutsedge plant response rating [2, 20] | Plant response rating, Nutsedge [2, 21] | Plant response rating, Nutsedge [2, 22] | Nutsedge plant response rating [2, 23] | Nutsedge plant response rating [2, 24] | Morningglory plant response rating [3, 20] | Plant response rating, Morningglory [3, 21] | Plant response rating, Morningglory [3, 22] | Morningglory plant response rating [3, 23] | B. signalgrass plant response rating [4, 17] | B. signalgrass plant response rating [4, 19] | B. signalgrass plant response rating [4, 20] | B. signalgrass plant response rating ([4]; Rate 125 g/ha, Postemergence, scale 0 to 10, 0 no effect, 10 complete control) | B. signalgrass plant response rating ([4]; Rate 500 g/ha, Postemergence, scale of 0 to 10 where 0 is no effect and 10 is complete control) | Blackgrass plant response rating [5, 17] | Blackgrass plant response rating [5, 18] | Blackgrass plant response rating [5, 20] | Soybean plant response rating [6, 17] | Soybean plant response rating [6, 18] | Soybean plant response rating [6, 20] | Plant response rating, Soybean [6, 21] | Plant response rating, Soybean [6, 22] | Cocklebur plant response rating [7, 17] | Cocklebur plant response rating [7, 18] | Cocklebur plant response rating [7, 20] | Plant response rating, Cocklebur [7, 21] | Plant response rating, Cocklebur [7, 22] | Cocklebur plant response rating [7, 23] | Crabgrass plant response rating [8, 17] | Crabgrass plant response rating [8, 20] | Plant response rating, Crabgrass [8, 21] | Corn plant response rating [9, 17] | Corn plant response rating [9, 18] | Corn plant response rating [9, 19] | Corn plant response rating [9, 20] | Plant response rating, Corn [9, 21] | Plant response rating, Corn [9, 22] | Corn plant response rating [9, 23] | Corn plant response rating [9, 24] | Ducksalad plant response rating [10, 25] | Ducksalad plant response rating [10, 17] | Rice plant response rating [11, 25] | Rice plant response rating [11, 17] | Plant response rating, Rice [11, 27] | Giant foxtail plant response rating [12, 17] | Giant foxtail plant response rating [12, 18] | Giant foxtail plant response rating [12, 20] | S. Flatsedge plant response rating [13, 25] | S. Flatsedge plant response rating [13, 17] | Plant response rating, S. Flatsedge [13, 27] | Wild oats plant response rating [14, 17] | Wild oats plant response rating [14, 18] | Wild oats plant response rating [14, 20] | Plant response rating, Wild oats [14, 30] | Wild oats plant response rating [14, 24] | Redroot pigweed plant response rating [15, 17] | Redroot pigweed plant response rating [15, 18] | Redroot pigweed plant response rating [15, 20] | Sugarbeets plant response rating [16, 17] | Sugarbeets plant response rating [16, 18] | Sugarbeets plant response rating [16, 20] | Plant response rating, Sugarbeets [16, 30] | Sugarbeets plant response rating [16, 24]
